Article PMC11679793, “Structure-Activity Relationship Study of Majusculamide D: Overcoming Metabolic Instability and Severe Toxicity with a Fluoro Analogue” (Marine Drugs, 2024)

Tests used:
[1] = test system: pancreatic cancer cells; assay: EdU assay; format: cell-based; details: 48 h treatment, concentration-dependent, vs control
From the text: The EdU ([…]) assay is a well-established method that assesses cell proliferation activity by detecting DNA synthesis. The results of EdU assays indicated […]
(§1) concentration-dependent manner. […]
the DNA synthesis of pancreatic cancer cells, thereby inhibiting the proliferation of pancreatic cancer cells, which was consistent with the results of clone formation assays. […]
Snail and TCF8/ZEB1 both […]
are transcription factors that can inhibit the expression of E-cadherin and promote the EMT process. Vimentin is a marker protein of mesenchymal cells, and its expression increases during EMT, further contribute to the process of metastasis by supporting the structural changes needed for cell migration and invasion.
We examined the effects of compound 1a on above key proteins involved in tumor progression pathways employing Western blot analysis in PANC-1 cells and MIA PaCa-2 […]
1a might inhibit cancer cell invasion and migration by enhancing cell-cell adhesion and barrier function. Conversely, the expression levels of β-catenin, Fibronectin, Snail, […]
Cells were resuspended at a concentration of 300 cells/mL, and 2 mL of the suspension was added to each well of a 6-well plate. […] The colonies were imaged under a microscope and quantified using ImageJ. […]

[2] = test system: PANC-1 and MIA PaCa-2 pancreatic cancer cells; assay: Transwell invasion assay; format: cell-based; details: 24 h, concentration-dependent, vs control
From the text: Figure S225. Compound 1a inhibited the migration, invasion and proliferation of pancreatic cancer cells. (A) The results of wound healing assays to investigate the effects of 1a on the migration ability against PANC-1 and MIA PaCa-2 pancreatic cancer cells. (B) The results of transwell assays to investigate the effects of 1a on the invasion ability. (C) Effects of 1a on the clonogenic ability. (D) EdU assays of 1a. (E) Western blot assays of 1a on biomarkers. Data are presented as mean ± SD, n […]
Approximately 50% of pancreatic cancer patients show distant metastases at the time […]
disease. To evaluate the inhibitory effects of majusculamide D (1a) on the migratory capabilities of pancreatic cancer cells (PANC-1 and MIA PaCa-2), wound healing assays […]
were performed (Figure S1A). […]
as §1
inhibited the migration of these pancreatic cancer cells. Further validation with transwell […]
concentration-dependent manner compared to the control group (Figure S1B). Since cell migration and invasion are correlated with cancer metastasis, compound 1a may delay the progression of tumors’ local spread and distant metastasis by inhibiting the migration and invasion ability of pancreatic cancer cells. […]
Images were taken at 0 hour and 24 hours after treatment to record and analyzed by measuring the area of the wound at each time point using ImageJ. […]

CCCCC(C)CC(C)C(=O)N(C)C(Cc1ccc(OC)cc1)C(=O)NC(C(=O)N(C)C(C(=O)N1CC(O)CC1C(=O)N1C(=O)C=CC1C)C(C)C)C(C)OC(C)=O (centres unmarked) [Compound 1a, Majusculamide D]
cell proliferation ability (EdU, DNA synthesis) [1]: decreased in comparison to the control group | cell invasion (transwell) [2]: significantly decreased cell invasion
